Source: patent publication US20090064375A1, “Paraquat Resistance Gene and a Vascular Tissue- and Trichome-specific Promoter” (priority 2003, published 2009)

Test system: non-transformant (wild-type Arabidopsis thaliana ecotype Col-0)
Assay: Evaluation of paraquat resistance: growth of germinated individuals in paraquat-containing ½ MS medium, non-transformant
Format: in vivo
Conditions: 3 μM of paraquat in ½ MS agar medium, cultured for eight days at 22° C., FIG. 2C
Method: Seeds derived from the produced AtMVR gene transformant and non-transformant (wild-type Arabidopsis thaliana ecotype Col-0) were sterilely inoculated in ½ MS agar (1%) medium (2.3 g/l of Murashige and Skoog Plant Salt Mixture (Wako Pure Chemical Industries Ltd.), 1.5 mg/l of thiamine hydrochloride, 2.5 mg/l of nicotinic acid, 0.25 mg/l of pyridoxine hydrochloride, 1.5% of sucrose) containing 3 μM of paraquat (methyl viologen (Sigma Chemical Co.)), and cultured for eight days at 22° C. under irradiation of light of 60 μmol/m^2/s (cycle of 16 hrs photoperiod/8 hrs dark period). After culture, the growth of germinated individuals was evaluated. The results are shown in FIG. 2, wherein FIG. 2B is a photograph showing growth of an AtMVR gene transformant and a non-transformant in a ½ MS culture medium without paraquat, and FIG. 2C is a photograph showing growth of an AtMVR gene transformant and a non-transformant in a ½ MS culture medium with paraquat. FIG. 2A is a schematic diagram showing the location of the AtMVR gene transformant and the non-transformant in FIGS. 2B and 2C.

C[n+]1ccc(-c2cc[n+](C)cc2)cc1 [paraquat]
growth of germinated individuals in a medium containing paraquat: developed chlorosis and died
